Experimental data as given in patent US12076307B2, “Compositions for prevention or treatment of acute radiation syndrome and other radiation exposure” (priority 2017, dated 2024).

Legend:
SD rat = assay: Repeated dose toxicity, SD rat; assay type: in vivo; settings: Oral
Text: (§1) Various toxicology studies have been performed. All studies were GLP-compliant unless otherwise noted.

[1] = Repeated dose toxicity, SD rat; assay type: in vivo; settings: SD, rat, in vivo, Oral
Text: as §1

[2] = Whole blood and lymphatic radioactivity in rats after single oral [14C]EC-18 100 mg/kg; assay type: in vivo, rat
[3] = as above; assay type: in vivo, rat; settings: 100 mg/kg oral; for Tmax: n=3, 100 mg/kg
Protocol: Male SD rats in fasted condition were administered a single dose of [^14C]EC-18 (oral dose of 100 mg/kg; vehicle: olive oil), and the radioactive concentration of the EC-18 was measured in whole blood samples at 0.5, 1, 2, 3, 4, 6, and 8 hrs after its administration. In parallel, male rats with a cannula inserted into the intestinal tract were administered a single dose of [^14C]EC-18 (oral dose of 100 mg/kg; vehicle: olive oil) and the concentration of EC-18-related radioactivity was measured in lymphatic fluid collected in conscious rats at 0.5, 1, 2, 3, 4, 6, and 8 hrs after its administration (FIG. 60). Then, the values of PK parameters were calculated using the quantitative data from whole blood and lymphatic fluid samples (Table 20). Following a single oral administration of [14C]EC-18, EC-18 concentration in the lymphatic fluid of rats was 10 to 53 times higher than that in whole blood (FIG. 60).

OCT2 = molecular target: T1, OCT2 (Homo sapiens, UniProt O15244); assay: Drug transporter inhibition, OCT2; assay type: in vitro ADME; settings: 100 nM [3H] methyl-4-phenylpyridinium; transfected HEK-293 cells
T1 construct: expressed in transfected cells; host or cells: HEK-293
Protocol: This study examined the potential of EC-18 to interact with the transporter proteins that have been known to be involved in the absorption of commercially available drugs. EC-18 was pre-incubated with HEK-293 cells and LLC-PK1 cells that were transfected with the genes of most drug transporters as follows: OATP1B1, OATP1B3, OAT1, OAT3 and OCT2, and BCRP and P-gp, respectively.

[4] = tested on: HaCaT (human keratinocyte) cells; assay: Radiation-induced DAMP (HMGB1) release from HaCaT cells; assay type: cell-based; settings: γ-irradiated HaCaT cells
Protocol: The radiation-induced DAMP removal was evaluated in HaCaT (human keratinocyte) cells exposed with γ-radiation from a ^60Co radiation source (0.833 Gy/minute). As one type of DAMPs, high-mobility group box 1 (HMGB1) was used as a biomarker to establish the mitigating effect of EC-18 against radiation. HMGB1 proportionally secreted as the radiation dosage (5 to 10 Gy) and exposure time (24 to 48 hrs) increased (FIG. 33A).

[5] = tested on: Balb/c mice, whole body radiation 1 Gy; assay: Blood immune cell counts (CBC) in radiation-induced leukopenia (RIL) ARS model; assay type: in vivo, mouse
Text: Balb/c mice (9-week-old male) were purchased from Koatech (Pyeongtaek, Republic of Korea) and maintained in a specific pathogen-free (SPF) environment to establish an animal model of acute radiation syndrome. In order to evaluate the effect of PLAG on the reduction of immune cells by radiation, the following three groups were constructed for this study. (1) normal control group (positive control); (2) Radiotherapy-Radiation induced leukopenia (RIL) group (negative control group); And (3) RIL+PLAG treated group (experimental group).
Specifically, mice treated with RIL and […] were exposed to whole body radiation at 1 Gy (100 rad=1.06 min). For the RIL+PLAG treatment group, 50 mg/kg/day of PLAG (Enzychem Lifesciences Co., Daejeon, Republic of Korea) was orally administered daily for 4 consecutive days after irradiation. The normal controls were not exposed to radiation. On the 5th day after irradiation, blood samples were collected, and then Complete Blood Count (CBC) was measured using a Mindray BC-5300 auto hematology analyzer (Shenzhen Mindray Bio-medical Electronics, China) so that the number of blood leukocytes, neutrophils and lymphocytes in blood could be counted (FIG. 1).

[6] = In vitro metabolite screening, rat liver microsomes; assay type: in vitro ADME; settings: N=2
Protocol: [^14C]EC-18 or the positive control (7-ethoxycoumarin; 7-EC) reacted with microsomes prepared from hepatocytes of rats, dogs, monkeys, and humans, with or without cofactors, for 60 and 120 min. Then, the residual EC-18 concentration over time was measured by LC-RID ([^14C]EC-18) or LC-MS/MS (7-EC) (FIG. 63 and FIG. 64).
The LC-RID chromatographic profiles of radioactive metabolites produced in the 2-hr incubation reaction mixtures of the same test systems A, B, and C used to assess the metabolic and non-metabolic elimination rates of EC-18 were compared to the LC-UV chromatographic profiles of the synthetic reference material. […] The relative radioactivity of EC-18 accounted for 42-67% of total radioactivity. The peaks designated as M2, M3, and M5 were also determined in all species, and their relative radioactivity accounted for 12-34% of total radioactivity. The peaks of M4 and M6 were determined in monkeys and humans. M1 was abundantly detected in all species, but it was assumed to be a peak of early elution. The LC-UV chromatograms of reaction mixtures in each test system (FIGS. 65A-65C) and the relative radioactivity of the screened metabolites are shown in Table 25.

[7] = tested on: Balb/c mice, γ-Radiation TBI; assay: Survival after total body irradiation 6.5-10 Gy (Example 4); assay type: in vivo, mouse; settings: 250 mg/kg/day PO
Text: In order to evaluate effects of PLAG on survival rates of animal models exposed to radiation, the following test groups were constructed as shown in Table 3 and results are shown in FIG. 7B, and FIG. 8-12. As discussed in Examples above, the first group of untreated group (negative control) of ARS-induced mice after radiation was compared to the second group of treated group of ARS-induced mice with PLAG after radiation.

[8] = RIL + PLAG 50 mg/kg/day oral 4 days, day 5, n=3

T1 sequence (O15244 whole entry): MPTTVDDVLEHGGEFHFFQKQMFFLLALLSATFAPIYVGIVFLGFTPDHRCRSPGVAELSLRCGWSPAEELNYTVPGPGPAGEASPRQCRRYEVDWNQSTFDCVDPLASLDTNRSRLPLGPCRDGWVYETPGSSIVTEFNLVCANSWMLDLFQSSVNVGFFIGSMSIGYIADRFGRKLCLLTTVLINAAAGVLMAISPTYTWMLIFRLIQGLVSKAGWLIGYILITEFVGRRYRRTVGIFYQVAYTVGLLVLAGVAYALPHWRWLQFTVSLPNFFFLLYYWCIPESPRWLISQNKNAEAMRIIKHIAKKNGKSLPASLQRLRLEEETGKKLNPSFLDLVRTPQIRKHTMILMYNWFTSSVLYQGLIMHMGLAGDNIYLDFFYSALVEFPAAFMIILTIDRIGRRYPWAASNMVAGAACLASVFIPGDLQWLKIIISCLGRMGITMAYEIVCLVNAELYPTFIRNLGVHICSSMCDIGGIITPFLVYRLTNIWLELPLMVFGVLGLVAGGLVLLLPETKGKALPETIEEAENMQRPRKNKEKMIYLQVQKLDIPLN

In the case of `CCCCC/C=C\C/C=C\CCCCCCCC(=O)OC(COC(C)=O)COC(=O)CCCCCCCCCCCCCCC` (stereo not shown) [EC-18, 1-palmitoyl-2-linoleoyl-3-acetylglycerol], the findings (SD rat; 4 weeks (DRF)) is reported as “No specific findings”, the mortality (SD rat; 4 weeks (DRF), 0, 500, 1000, 2000 mg/kg) is reported as “No dead animals” and the findings (SD rat; 13 weeks) is reported as “No specific findings”. The mortality (SD rat; 13 weeks, 0, 500, 1000, 2000 mg/kg) was “No dead animals”, the findings (SD rat; 26 weeks (4-week recovery)) was “No specific findings” and the mortality (SD rat; 26 weeks (4-week recovery), male in 500 mg/kg group, 41st day, no relationship to EC-18 dosing) was “A single case of death”. For the same compound, the NOAEL at 4 weeks ([1]; 4 weeks (DRF)) was greater than 2000 mg/kg/day, the NOAEL at 13 weeks ([1]; 13 weeks) was greater than 2000 mg/kg/day and the NOAEL at 26 weeks ([1]; 26 weeks (4-week recovery)) was greater than 2000 mg/kg/day. For the same compound, the “Cmax of radioactivity at 24 hrs (so in the source)” value ([2]; lymphatic fluid) was 48%, the “Cmax of radioactivity at 24 hrs (so in the source)” value ([2]; whole blood) was 34% and the “AUC0-last in lymphatic fluid relative to whole blood” value [3] was 41 times. The “Cmax in lymphatic fluid relative to whole blood” value [3] was 31 times, the Tmax ([3]; Lymphatic Fluid) was 7.0 h and the Tmax ([3]; Whole Blood, fasted) was 3.8 h. For the same compound, the IC50 (OCT2) was greater than 32 µM, the HMGB1 release [4] was “less HMGB1 released in a dose-dependent manner” and the “increase of blood leukocyte count vs RIL group” value ([5]; PLAG 50 mg/kg/day, day 5) was 63%. For the same compound, the “increase of blood lymphocyte count vs RIL group” value ([5]; PLAG 50 mg/kg/day, day 5) was 85%, the “increase of blood neutrophil count vs RIL group” value ([5]; PLAG 50 mg/kg/day, day 5) was 34% and the Lymphocyte [5, 8] was 2.2±0.42 10^3/μL. The Neutrophils [5, 8] was 1.17±0.35 10^3/μL, the White blood cells [5, 8] was 3.56±0.84 10^3/μL and the “Mean Peak Area in LC-RID” value ([6]; A (NADPH added), [14C]EC-18 2 hrs) was 61.8%. The “Mean Peak Area in LC-RID” value ([6]; B (NADPH, PAPS, UDPGA added), 2 hrs) was 51.9%, the “Mean Peak Area in LC-RID” value ([6]; C (no cofactor added), 2 hrs) was 58.8% and the “survival rate vs untreated mice” value ([7]; 6.5 Gy TBI, BALB/c 9 weeks old) was “improved”. The “survival rate vs untreated mice” value ([7]; 6.5 Gy TBI, BALB/c 11 weeks old) was “improved”, the “survival rate vs untreated mice” value ([7]; 7 Gy TBI, 9 weeks old) was “improved until about day 15” and the “survival rate vs untreated mice” value ([7]; 8 Gy TBI, 9 weeks old) was “improved until about day 14”. For the same compound, the “survival rate vs untreated mice” value ([7]; 10 Gy TBI, 9 weeks old) was “improved until about day 9”.
